Source: patent US8288379B2, “Thia-triaza-cyclopentazulenes” (Boehringer Ingelheim International GmbH, priority 2009, dated 2012)

Legend:
[1] = target: T1, FRAP1 (mTOR) kinase (Homo sapiens, UniProt P42345); assay: Inhibition of mTOR-induced p-4E-BP1 phosphorylation (TR-FRET mTOR Activity Kit; Invitrogen); type: biochemical; conditions: 400 nM GFP-4E-BP1 substrate, ~150 ng/mL mTOR, one hour at room temperature
T1 construct: purchased Invitrogen PV4753
Outline: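 LanthaScreen TR-FRET: mTOR with GFP-4E-BP1 substrate in HEPES pH 7.5 buffer with 10 mM MnCl2, compound preincubated 30 min at RT, then ATP added and reacted 1 h at 20-25 °C. Stopped with EDTA plus Tb-anti-p4E-BP1 (pThr46), 1 h; GFP/Tb emission ratio over a 16-point curve, sigmoidal fit for IC50.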

[2] = test system: PC-3 cells; assay: Inhibition of proliferation: CyQuant PC-3; type: cell-based; conditions: 72 h; PC-3 human prostate carcinoma cells, incubated with compounds for 3 days, CyQuant NF DNA dye
Protocol: • GFP-4E-BP1 substrate; Invitrogen order no. PV4759 • Lanthascreen Tb-anti-p4E-BP1 (pThr46) Antibody Kit; Invitrogen order no. PV4758 • FRAP1 (mTOR) kinase; Invitrogen order no. […] Preparation of Reagents: Note: Thaw and keep mTOR, the substrate, ATP, and the antibody on ice prior to making working dilutions. Working dilutions of these components can be kept at room temperature for short periods of time the day of use. 1. Add 2 ml of 5× Assay Buffer to 8 ml water to prepare 10 ml of 1× Assay Buffer. Note: The concentration of 1× Assay Buffer is 50 mM HEPES pH 7.5, 0.01% Polysorbate 20, 1 mM EGTA, and 10 mM MnCl2. 2. Prepare Antibody/EDTA Solution by first adding 2.75 n1 of Tb-anti p4E-BP1 Antibody to 2397 n1 of LanthaScreen™ TR-FRET Dilution Buffer. Then, add 100 n1 of 0.5 M EDTA. 3. Prepare 4× Substrate/Enzyme Solution by first adding 72 n1 of GFP-4E-BP1 (22 nM) to 926 n1 of 1× Assay Buffer. Then, add 1.6 n1 of mTOR (0.45 mg/mL). 4. Prepare ATP Solution by adding 3.2 n1 of 10 mM ATP to 1997 n1 of 1× Assay Buffer. Serial Dilution of Inhibitors (16 Point Curve): Note: It is recommended that inhibitors be serially diluted in DMSO, then diluted to a 4× working concentration with 1× Assay Buffer. The below procedure describes dilution of compounds in a 96-well format prior to transfer to a 384-well format for kinase assays. This procedure calls for dilution of the compounds in 2 adjacent columns of a 96-well plate, which upon transfer to a single column of a 384-well plate with an 8-channel pipette will align the samples in order of concentration. 1. Dispense 40 n1 of DMSO to two adjacent columns of a 96 well plate per compound (e.g. columns 1 and 2). 2. Add 10 n1 of inhibitor stock (10 mM) to the first well of the first column (A1) and mix. 3. Remove 10 n1 from A1 and transfer to the adjacent well in the next column (B1) and mix. 4. Remove 10 n1 from B1 and transfer to the next well in the first column (B2) and mix. 5. Repeat this dilution pattern through well H1 and leave the last well (H2) as DMSO only. 6. Remove 4 n1 of diluted compounds and add to 96 n1 of 1× Assay Buffer in a 96-well plate making 4× compound dilutions. Kinase Reaction: 1. Add 2.5 μl of 4× compound dilutions from the first column of the 96-well plate to every other well of column 1 of a 384-well plate with an 8-channel pipette. Repeat for columns 2 and 3. 2. Add 2.5 n1 of 4× compound dilutions from the second column of the 96-well plate to the empty wells of column 1 of the 384-well plate with an 8-channel pipette. Repeat for columns 2 and 3. Note: This procedure aligns the compound dilutions in order of concentration. 3. Add 2.5 n1 of 4× Enzyme/Substrate Solution to all columns 1-6. 4. Preincubate for 30 min. at RT (shaker). 5. Add 5 n1 of ATP Solution to all wells to start reactions. 6. Shake the assay plate on a plate shaker for 30 seconds. 7. Incubate the assay plate for one hour at room temperature (20-25° C.). Stop Step and Fluorescence Detection: 1. Add 10 n1 of Antibody/EDTA Solution to each well in columns 1-9. 2. Shake the assay plate on a plate shaker for 30 seconds. 3. Incubate the assay plate for one hour at room temperature (20-25° C.). 4. Measure the GFP (FRET) and terbium (reference) emission signals on a fluorescence plate reader (e.g. Perkin Elmer Envision). Data Analysis: 1. Calculate the emission ratio for each sample by dividing the GFP (FRET) signal by the terbium (reference) signal. 2. Plot the concentration of each compound versus the emission ratio. Determine the concentration of compound required to reach 50% of the maximum signal (IC50). Determination of IC50 values can be obtained by curve fitting (sigmoidal dose response, variable slope) using Prism software from GraphPad). Inhibition of Proliferation: CyQuant PC-3 Description:
The CyQuant NF assay is based on measurement of cellular DNA content via fluorescent dye binding. Because cellular DNA content is highly regulated, it is closely proportional to cell number. […]

T1 sequence (P42345 1360-2549 limits assumed): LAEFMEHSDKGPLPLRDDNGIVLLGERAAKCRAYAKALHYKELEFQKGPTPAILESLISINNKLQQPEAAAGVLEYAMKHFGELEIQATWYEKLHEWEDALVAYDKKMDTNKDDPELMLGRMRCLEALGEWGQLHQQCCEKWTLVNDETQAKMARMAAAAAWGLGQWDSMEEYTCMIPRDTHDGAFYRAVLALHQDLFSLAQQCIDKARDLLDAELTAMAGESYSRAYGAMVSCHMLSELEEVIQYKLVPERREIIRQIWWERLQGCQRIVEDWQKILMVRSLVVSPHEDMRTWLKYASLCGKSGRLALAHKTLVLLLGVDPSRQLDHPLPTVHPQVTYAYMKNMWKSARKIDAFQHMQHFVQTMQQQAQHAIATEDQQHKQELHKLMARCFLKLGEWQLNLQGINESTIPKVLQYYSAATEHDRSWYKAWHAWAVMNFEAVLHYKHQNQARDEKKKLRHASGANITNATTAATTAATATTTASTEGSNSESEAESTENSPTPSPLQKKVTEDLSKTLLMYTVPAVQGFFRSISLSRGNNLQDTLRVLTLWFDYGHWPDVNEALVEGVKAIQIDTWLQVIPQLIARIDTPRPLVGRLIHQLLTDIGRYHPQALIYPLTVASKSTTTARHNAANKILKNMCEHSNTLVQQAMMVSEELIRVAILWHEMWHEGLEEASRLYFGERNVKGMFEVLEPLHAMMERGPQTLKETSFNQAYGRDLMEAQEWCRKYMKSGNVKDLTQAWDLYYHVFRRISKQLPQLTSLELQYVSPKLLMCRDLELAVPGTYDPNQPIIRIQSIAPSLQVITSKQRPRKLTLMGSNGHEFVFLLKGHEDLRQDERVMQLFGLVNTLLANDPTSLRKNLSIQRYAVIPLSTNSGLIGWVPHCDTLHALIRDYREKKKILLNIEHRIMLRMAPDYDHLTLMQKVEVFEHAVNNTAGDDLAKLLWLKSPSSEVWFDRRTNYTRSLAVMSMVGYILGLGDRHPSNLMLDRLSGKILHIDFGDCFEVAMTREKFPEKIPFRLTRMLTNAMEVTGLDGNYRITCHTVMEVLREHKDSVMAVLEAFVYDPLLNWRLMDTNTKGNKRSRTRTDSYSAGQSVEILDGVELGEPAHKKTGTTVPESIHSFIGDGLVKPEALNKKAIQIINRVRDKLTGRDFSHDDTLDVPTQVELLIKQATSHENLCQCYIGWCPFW

| Compound | IC50 [1] | EC50 [2] |
| --- | --- | --- |
| CC(=O)Nc1nc2c(s1)-c1c(c(-c3ccc(C)nc3)nn1-c1cccnc1C)CCC2 [Example B-137, N-[1-(2-Methyl-pyridin-3-yl)-3-(6-methyl-pyridin-3-yl)-1,4,5,6-tetrahydro-9-thia-1,2,7-triaza-cyclopent[e]azulen-8-yl]acetamide] | 422 nM | 1240 nM |
| CC(=O)Nc1nc2c(s1)-c1c(c(-c3c[nH]cn3)nn1-c1ccc(C3(N(C)C)CC3)cc1)CCC2 [Example B-115] | 2 nM | 16 nM |
| CCNc1ccc(-c2nn(C3CCCOC3)c3c2CCCc2nc(NC(C)=O)sc2-3)cn1 (centres unmarked) [Example B-60] | 109 nM | 170 nM |
| CN(C)CC(=O)Nc1nc2c(s1)-c1c(c(-c3ccc(N)nc3)nn1-c1ccccc1F)CCC2 [Example E-17, N-[3-(6-Amino-pyridin-3-yl)-1-(2-fluoro-phenyl)-1,4,5,6-tetrahydro-9-thia-1,2,7-triaza-cyclopenta[e]azulen-8-yl]-2-dimethylamino-acetamide] | 65 nM | 171 nM |
| CCNc1ccc(-c2nn(-c3ccccc3)c3c2CCCc2nc(NC(C)=O)sc2-3)cn1 [Example B-122, N-[3-(6-Ethylamino-pyridin-3-yl)-1-phenyl-1,4,5,6-tetrahydro-9-thia-1,2,7-triaza-cyclopenta[e]azulen-8-yl]-acetamide] | 32 nM | 79 nM |
| CCn1nc(-c2ccc(N)nc2)c2c1-c1sc(NC(=O)N(C)C)nc1CCC2 [Example B-35] | 219 nM | 408 nM |
| CC(=O)Nc1nc2c(s1)-c1c(c(-c3ccc(C)nc3)nn1-c1ccncc1C)CCC2 [Example B-90] | 118 nM | 422 nM |
| CNc1ccc(-c2nn(CCN3CCOCC3)c3c2CCCc2nc(NC(C)=O)sc2-3)cn1 [Example B-82, N-[3-(6-Methylamino-pyridin-3-yl)-1-(2-morpholin-4-yl-ethyl)-1,4,5,6-tetrahydro-9-thia-1,2,7-triaza-cyclopenta[e]azulen-8-yl]-acetamide] | 33 nM | 49 nM |
| COCCC(=O)Nc1nc2c(s1)-c1c(c(-c3ccc(N)nc3)nn1CC(C)C)CCC2 [Example B-134] | 60 nM | 143 nM |
| CCNc1ccc(-c2nn(CCOC)c3c2CCCc2nc(NC(C)=O)sc2-3)cn1 [Example B-125] | 114 nM | 253 nM |
| CCNc1ccc(-c2nn(-c3cccnc3)c3c2CCCc2nc(NC(C)=O)sc2-3)cn1 [Example B-127] | 83 nM | 137 nM |
| CNc1ccc(-c2nn(-c3ccccc3F)c3c2CCCc2nc(NC(=O)N(C)C)sc2-3)cn1 [Example B-43] | 141 nM | 191 nM |
| CN(C)CCCC(=O)Nc1nc2c(s1)-c1c(c(-c3ccc(N)nc3)nn1-c1ccccc1F)CCC2 [Example E-16, N-[3-(6-Amino-pyridin-3-yl)-1-(2-fluoro-phenyl)-1,4,5,6-tetrahydro-9-thia-1,2,7-triaza-cyclopenta[e]azulen-8-yl]-4-dimethylamino-butyramide] | 13 nM | 32 nM |
| NCC(=O)Nc1nc2c(s1)-c1c(c(-c3ccc(N)nc3)nn1-c1ccccc1F)CCC2 [Example B-101] | 22 nM | 96 nM |
| CNc1ccc(-c2nn(C(C)C)c3c2CCCc2nc(NC(C)=O)sc2-3)cn1 [Example B-05, N-[1-Isopropyl-3-(6-methylamino-pyridin-3-yl)-1,4,5,6-tetrahydro-9-thia-1,2,7-triaza-cyclopenta[e]azulen-8-yl]-acetamide] | 24 nM | 95 nM |
| CN(C)C(=O)Nc1nc2c(s1)-c1c(c(-c3ccc(N)nc3)nn1-c1ccccc1Cl)CCC2 [Example B-54] | 570 nM | 390 nM |
| CN(C)C(=O)Nc1nc2c(s1)-c1c(c(-c3ccc(N)nc3)nn1C1CCN(C3CC3)CC1)CCC2 [Example B-49, 3-[3-(6-Amino-pyridin-3-yl)-1-(1-cyclopropyl-piperidin-4-yl)-1,4,5,6-tetrahydro-9-thia-1,2,7-triaza-cyclopenta[e]azulen-8-yl]-1,1-dimethyl-urea] | 41 nM | 156 nM |
| CCNc1ccc(-c2nn(C(C)C)c3c2CCCc2nc(NC(C)=O)sc2-3)cn1 [Example B-01, N-[3-(6-Ethylamino-pyridin-3-yl)-1-isopropyl-1,4,5,6-tetrahydro-9-thia-1,2,7-triaza-cyclopenta[e]azulen-8-yl]-acetamide] | 151 nM | 308 nM |
| CCCn1nc(-c2ccc(N)nc2)c2c1-c1sc(NC(=O)N(C)C)nc1CCC2 [Example B-33] | 116 nM | 310 nM |
| CNc1ccc(-c2nn(C3CCN(C)CC3)c3c2CCCc2nc(NC(=O)N(C)C)sc2-3)cn1 [Example B-56] | 379 nM | 579 nM |
| C=CCn1nc(-c2ccc(N)nc2)c2c1-c1sc(NC(=O)N(C)C)nc1CCC2 [Example B-52] | 146 nM | 326 nM |
| CC(C)n1nc(-c2ccc(N)nc2)c2c1-c1sc(NC(=O)CCCN(C)C)nc1CCC2 [Example B-135, N-[3-(6-Amino-pyridin-3-yl)-1-isopropyl-1,4,5,6-tetrahydro-9-thia-1,2,7-triaza-cyclopenta[e]azulen-8-yl]-4-dimethylamino-butyramide] | 44 nM | 79 nM |
| CNc1ccc(-c2nn(-c3ccccc3)c3c2CCCc2nc(NC(C)=O)sc2-3)cn1 [Example B-87, N-[3-(6-Methylamino-pyridin-3-yl)-1-phenyl-1,4,5,6-tetrahydro-9-thia-1,2,7-triaza-cyclopenta[e]azulen-8-yl]-acetamide] | 55 nM | 21 nM |
| CC(=O)Nc1nc2c(s1)-c1c(c(-c3ccc(C)nc3)nn1-c1ccccc1F)CCC2 [Example B-17, N-[1-(2-Fluoro-phenyl)-3-(6-methyl-pyridin-3-yl)-1,4,5,6-tetrahydro-9-thia-1,2,7-triaza-cyclopenta[e]azulen-8-yl]-acetamide] | 53 nM | 114 nM |
| CNc1ccc(-c2nn(-c3ccccc3C)c3c2CCCc2nc(NC(=O)CCC(=O)N(C)C)sc2-3)cn1 [Example B-108] | 102 nM | 106 nM |
| CCNc1ccc(-c2nn(-c3ccccc3C)c3c2CCCc2nc(NC(=O)CCOC)sc2-3)cn1 [Example B-71] | 138 nM | 318 nM |
| CC(=O)Nc1nc2c(s1)-c1c(c(-c3ccc(N)nc3)nn1-c1ccccc1F)CCC2 [Example B-62, N-[3-(6-Amino-pyridin-3-yl)-1-(2-fluoro-phenyl)-1,4,5,6-tetrahydro-9-thia-1,2,7-triaza-cyclopenta[e]azulen-8-yl]-acetamide] | 10 nM | 47 nM |
| CCNc1ccc(-c2nn(-c3ccccc3CC)c3c2CCCc2nc(NC(C)=O)sc2-3)cn1 [Example B-79] | 65 nM | 62 nM |
